Measurements reported in patent publication US10874101B2, “Tolerance improving agent for plants” (PHYTOCHROME INC., priority 2014, dated 2020).
Like-named read-outs stand apart in the source and are kept apart here.

Key:
HSFA2 gene [1] = assay: Expression level of HSFA2 gene in Arabidopsis (qPCR); format: in vivo, Arabidopsis thaliana; settings: for fold induction at 10 nmol/cm3: Arabidopsis thaliana, 0.5 h, read-out: relative transcription level (fold), HSFA2 gene
Description: (§1) Total RNA was extracted using RNeasy Plant Mini Kit (Quiagen), and cDNA was successively synthesized using RevaTra Ace Kit (TOYOBO CO., LTD.).
(§2) HSFA2 gene and DREB2A gene were quantified using SYBR Green qPCR Mix (TOYOBO CO., LTD.), LineGene Real-time PCR detection system (BioFlux).
(§3) The primers used for each gene expression analysis are as described below.
Arabidopsis (Arabidopsis thaliana, Columbia-0) was exposed to the compound shown in Table 2 in a gaseous state (concentration 10 nmol/cm^3) for 30 min (temperature 23° C.), and the expression level of HSFA2 gene was analyzed.
(§4) Arabidopsis was seeded in artificial soil material “Jiffy-7” (SAKATA SEED CORPORATION), cultured for 14 hr in light period/10 hr in dark period at 23° C. for 2-3 weeks and used.

photochemical system II = assay: Photosynthesis activity (Fv/Fm) of Arabidopsis; format: in vivo, Arabidopsis thaliana; settings: gaseous state 25 nmol/cm^3, 120 min, 25° C., light 100 μmol/m^2·s, dark adaptation 5 min
Description: The photosynthesis activity was measured using the maximum quantum yield (Fv/Fm) of photochemical system II as an index. Test plant object was subjected to dark adaptation (for 5 min), and Fv/Fm was measured using photosynthesis measuring apparatus Junior-PAM (Walz). The measurement was performed at least three times for different sites of the leaf and the averaged numerical value was taken as photosynthesis activity.
Arabidopsis (Arabidopsis thaliana, Columbia-0) was exposed to the compound shown in Table 4 in a gaseous, state (concentration 25 nmol/cm^3) for 120 min (temperature 25° C.) in the presence of light (100 μmol/m^2·s), subjected to a dark adaptation treatment for 5 min, and photosynthesis activity (Fv/Fm) was measured.
as §4

[2] = system: Arabidopsis (Arabidopsis thaliana, Columbia-0); assay: Survival rate of Arabidopsis after high temperature treatment; format: in vivo; settings: gaseous state 10 nmol/cm^3 for 120 min, then 120 min at 40-45° C. in light; relative to non-exposure sample as 100(%)
Description: Arabidopsis (Arabidopsis thaliana, Columbia-0) was exposed to the compound shown in Table 3 in a gaseous state (concentration 10 nmol/cm^3) for 120 min, left standing for 120 min in an environmental control chamber (manufactured by NIPPON MEDICAL & CHEMICAL INSTRUMENTS CO., LTD.) set to 40-45° C. and in the presence of light (100 μmol/m^2·s), and the survival rate after lapse of 3 days was measured.
as §4
In Table 3, the survival rate is a relative value with the survival rate of a non-exposure sample (sample left standing at 45° C. for 120 min without exposure to the compound) as 100(%).

HSFA2 gene [3] = assay: Expression level of HSFA2 gene in tomato (qPCR); format: in vivo, Solanum lycopersicum; settings: tomato (Microtom), gaseous state 10 nmol/cm^3, 30 min, 25° C.; non-exposure as 1
Description: as §1, §2, §3
Tomato (Solanum lycopersicum, Microtom) was exposed to (E)-2-hexenal in a gaseous state (concentration 10 nmol/cm^3) for 30 min (temperature 25° C.), and the expression level of HSFA2 gene was analyzed to find 20.2-fold (relative transcription level with non-exposure to (E)-2-hexenal as 1).
The tomato was seeded in artificial soil material “Jiffy-7” (SAKATA SEED CORPORATION), cultured for 14 hr in light period/10 hr in dark period at 23° C. for 2-3 weeks and used.

HSFA2 gene [4] = assay: Expression level of HSFA2 gene in rice (qPCR); format: in vivo, Oryza sativa; settings: rice (Nipponbare), gaseous state 10 nmol/cm^3, 30 min, 25° C.; non-exposure as 1
Description: as §1, §2, §3
(§5) Rice (Oryza sativa, Nipponbare) was exposed to (E)-2-hexenal in a gaseous state (concentration 10 nmol/cm^3) for 30 min (temperature 25° C.), and the expression level of HSFA2 gene and DREB2A gene was analyzed. As a result, the expression level of HSFA2 gene was 3.55-fold (relative transcription level with non-exposure to (E)-2-hexenal as 1), and the expression level of DREB2A was 3.93-fold (relative transcription level with non-exposure to (E)-2-hexenal as 1).
(§6) The rice was seeded in artificial soil material “Jiffy-7” (SAKATA SEED CORPORATION), cultured for 14 hr in light period/10 hr in dark period at 23° C. for 2-3 weeks and used.

DREB2A gene = assay: Expression level of DREB2A gene in rice (qPCR); format: in vivo, Oryza sativa; settings: rice (Nipponbare), gaseous state 10 nmol/cm^3, 30 min, 25° C.; non-exposure as 1
Description: as §1, §2, §3, §5, §6

HSP17.6-C = assay: Expression level of HSP gene HSP17.6-C in Arabidopsis (microarray); format: in vivo, Arabidopsis thaliana; settings: gaseous state 10 nmol/cm^3, 30 min, 23° C., non-exposure as 1
Description: (§7) HSP gene was quantified by microarray analysis. The total RNA was extracted using RNeasy Plant Mini Kit (Quiagen), and double stranded cDNA was synthesized using Superscript Choice System (Life Technologies). cDNA was labeled with Cy3 by using NimbleGen One-color Labeling Kit (NimbleGen), and hybridized to DNA array (ATH6_60 mer_expr X4, NmibleGen) at 42° C. for 6 hr. DNA array was washed, Cy3 fluorescence intensity was measured by Axon GenePix 4000B scanner (NimbleGen) and quantified.
(§8) Arabidopsis (Arabidopsis thaliana, Columbia-0) was exposed to (E)-2-hexenal in a gaseous state (concentration 10 nmol/cm^3) for 30 min (temperature 23° C.), and the expression level of HSP genes (HSP17.6-C, HSP17.6-A) was analyzed.
as §4

HSP17.6-A = assay: Expression level of HSP gene HSP17.6-A in Arabidopsis (microarray); format: in vivo, Arabidopsis thaliana; settings: gaseous state 10 nmol/cm^3, 30 min, 23° C., non-exposure as 1
Description: as §7, §8, §4

[5] = Arabidopsis, gaseous state 10 nmol/cm^3, 30 min, 23° C., relative to acetonitrile as 1

Row | photosynthesis activity (Fv/Fm) (photochemical system II) | Compound | fold induction at 10 nmol/cm3 (HSFA2 gene [1]; [5]) | other results
1 |  | CCCCCC(C)=O [2-heptanone, reference compound] | 1.1 | 
2 | 0.753 | CCCCCCC/C=C/C=O [(E)-2-decenal] |  | 
3 | 0.748 | CCCC/C=C/C=O [(E)-2-heptenal] | 642 | 
4 |  | CCC/C=C/CO [(E)-2-hexenol, reference compound] | 0.735 | 
5 | 0.741 | CCCCCC/C=C/C=O [(E)-2-nonenal] | 488 | 
6 | 0.732 | CCCCC/C=C/C=O [(E)-2-octenal] | 777 | 
7 | 0.710 | CC/C=C/C=O [(E)-2-pentenal] | 470 | 
8 |  | CCC/C=C/C(C)=O [(E)-3-hepten-2-one] | 266 | survival rate (%) after 3 days [2]: 159%
9 | 0.743 | CC/C=C\CCC=O [(Z)-4-heptenal] | 320 | 
10 | 0.745 | CC/C=C\CCCCC=O [(Z)-6-nonenal] | 270 | 
11 |  | n-hexenal [reference compound] |  | relative transcription level (fold), HSFA2 gene (HSFA2 gene [1]; [5]): 7.9 fold

Row | Compound | photosynthesis activity (Fv/Fm) (photochemical system II) | fold induction at 10 nmol/cm3 (HSFA2 gene [1]; [5]) | other results
12 | C=CC=O [2-propenal, reference compound] | 0.393 |  | 
13 | C/C=C/C=O [(E)-2-butenal] | 0.726 |  | relative transcription level (fold), HSFA2 gene (HSFA2 gene [1]; [5]): 469 fold; survival rate (%) after 3 days [2]: 140%
14 | CCC/C=C/C=O [(E)-2-hexenal] | 0.739 |  | fold induction at 10 nmol/cm3 (HSFA2 gene [1]): 377; relative transcription level, HSFA2 gene (HSFA2 gene [3]): 20.2 fold; relative transcription level, HSFA2 gene (HSFA2 gene [4]): 3.55 fold; relative transcription level, DREB2A gene (DREB2A gene): 3.93 fold; survival rate (%) after 3 days [2]: 170%; Relative transcription level (fold) HSP17.6-C (HSP17.6-C): 45.9 fold; Relative transcription level (fold) HSP17.6-A (HSP17.6-A): 36.3 fold
15 | CC#N [acetonitrile, reference compound] | 0.729 |  | fold induction at 10 nmol/cm3 (HSFA2 gene [1]): 1
